Data reported in patent US5616579A, “Anti-ulcer pyridyloxy derivatives, their preparation and uses” (Sankyo Company, Limited, priority 1992, dated 1997).

Key:
[1] = test system: guinea pig right atrium; assay: Atrial Test in Guinea Pigs (inhibition of histamine-stimulated heart rate, isolated right atrium); conditions: Cavia porcellus; test compound 1 μg/ml; 10^-5 M histamine; heart rate vs control
Experimental: Atrial Test in Guinea Pigs
The guinea pig right atrium in a spontaneous palpitation was excised, suspended in 40 ml of Krebs-Henselite solution, and a tension of 1 g was loaded between the atrium preparation and a transducer. The solution was aerated at a fixed rate at 37° C. 10^-5 M histamine was added, and the heart rate was recorded as control. A test compound was added to a concentration of 1 μg/ml and then, after 3 minutes, 10^-5 M histamine was added, and the heart rate was again recorded. The inhibitory rate (R %) compared to the control group was calculated according to the following equation: […]
A: The heart rate of the control group
B: The heart rate of the group to which the drug was administered

[2] = test system: gastric acid output; assay: Inhibition of Gastric Secretions (Shay's method, pylorus-ligated rats); assay type: in vivo, rat (male SD); conditions: Rattus norvegicus, intraduodenal, 4 hours
Experimental: Inhibition of Gastric Secretions
This test was carried out according to Shay's method [H. Shay: Gastroenterology 5, 43 (1945)] using male SD rats (5 weeks old). The rats were divided into groups, each group containing 5 rats. The animals were fasted for 24 hours before the beginning of the experiment. They were then anesthetized with ether, the abdominal region was opened, and the pylorus was ligated. A test compound suspended in a 0.5% w/v aqueous carboxymethylcellulose (CMC) solution was administered intraduodenally. After 4 hours, the rat was sacrificed by deep anesthesia with ether, and the stomach was excised. The gastric juice was removed, centrifuged for 15 minutes at 2500 rpm, and then 0.1 ml of the supernatant was taken out and titrated until the end point of neutralization with a 0.01N aqueous solution of sodium hydroxide, to determine the total gastric acidity. The amount of gastric acid secreted per hour (μEq/hr) was calculated, and the inhibition rate (R %) to the control group was calculated according to the following equation.
A: The gastric acid output of the control group (μEq/hr)
B: The amount of gastric acid output of the drug administered group (μEq/hr)

[3] = test system: gastric mucosa; assay: HCl-Ethanol-Induced Ulcer Test in Rats; assay type: in vivo, rat (male SD); conditions: dose 50 mg/kg, oral, 60 minutes before HCl-ethanol
Experimental: HCl-Ethanol-Induced Ulcer Test in Rats
Male SD rats (6 to 8 weeks old) were fasted for 24 hours before the beginning of the experiment. Each was then administered orally with 1 ml of a 60% ethanol solution containing 150 mM of hydrogen chloride. After 1 hour, the stomach was excised. Into the stomach was injected 10 ml of a 0.5% formaldehyde solution, and the stomach was fixed for 20 minutes. The injured area (mm^2) occuring on the surface of the gastric mucosa was measured, and the total injured area per rat was regarded as the injury index.
Test compounds and 0.5% CMC, as the control, were orally administered each at a dose of 0.1 ml/100 g, 60 minutes before treatment with the HCl-ethanol solution.
The ulcer formation inhibitory rate (R %) was calculated by the following equation.
A: The injury index of the control group (mm^2)
B: The injury index of the drug administered group (mm^2)

SMILES	inhibition at 1 µg/mL [1] [%]	inhibition in vivo at 50 mg/kg [2] [%]	inhibition in vivo at 25 mg/kg [2] [%]	inhibition in vivo at 12.5 mg/kg [2] [%]	% Inhibition (ulcer formation) [3] [%]
O=C(CSCCO)NC/C=C\COc1cc(CN2CCCCC2)ccn1 [Example 1, N-[4-(4-piperidinomethyl-2-pyridyloxy)-cis-2-butenyl]-2-(2-hydroxyethylthio)acetamide]	86	63	–	–	–
O=C(NC/C=C\COc1cc(CN2CCCCC2)ccn1)c1cscn1 [Example 26, N-[4-(4-Piperidinomethyl-2-pyridyloxy) -cis-2-butenyl]thiazole-4-carboxamide]	80	–	–	–	–
O=C(CCCSc1nc[nH]n1)NC/C=C\COc1cc(CN2CCCCC2)ccn1 [Example 41, N-[4-(4-Piperidinomethyl-2-pyridyloxy)-cis-2-butenyl]-4-(1,2,4-triazol-3-ylthio)butyramide]	85	76	61	–	–
CC(=O)OCCSCCCC(=O)NC/C=C\COc1cc(CN2CCCCC2)ccn1 [Example 6, N-[4-(4-Piperidinomethyl-2-pyridyloxy)-cis-2-butenyl]-4-(2-acetoxyethylthio)butyramide]	86	73	–	–	–
Cc1nnc(SCCCC(=O)NC/C=C\COc2cc(CN3CCCCC3)ccn2)o1 [Example 37, N-[4-(4-Piperidinomethyl-2-pyridyloxy)-cis-2-butenyl]-4-(5-methyl-1,3,4-oxadiazol-2-ylthio)butyramide]	99	74	–	–	–
CCC(=O)OCCSCC(=O)NC/C=C\COc1cc(CN2CCCCC2)ccn1 [Example 7, N-[4-(4-Piperidinomethyl-2-pyridyloxy)-cis-2-butenyl]-2-(2-propionyloxyethylthio)acetamide]	–	–	63	51	61
O=C(CSCc1ccco1)NC/C=C\COc1cc(CN2CCCCC2)ccn1 [Compound B, reference compound]	99	-40	–	–	97
O=C(NC/C=C\COc1cc(CN2CCCCC2)ccn1)NC1CCC1 [Example 58, N-Cyclobutyl-N'-[4-(4-piperidinomethyl-2-pyridyloxy) -cis-2-butenyl]urea]	–	56	–	–	–
O=C(CCCSc1ncccn1)NC/C=C\COc1cc(CN2CCCCC2)ccn1 [Example 34, N-[4-(4-Piperidinomethyl-2-pyridyloxy) -cis-2-butenyl]-4-(2-pyrimidinylthio) butyramide]	94	–	86	61	79
CC(=O)OCCSCC(=O)NC/C=C\COc1cc(CN2CCCCC2)ccn1 [Example 2, N-[4-(4-Piperidinomethyl-2-pyridyloxy)-cis-2-butenyl]-2-(2-acetoxyethylthio)acetamide]	90	52	–	–	100
O=C(NC/C=C\COc1cc(CN2CCCCC2)ccn1)c1cn[nH]c1 [Example 13, N-[4-(4-piperidinomethyl-2-pyridyloxy)-cis-2-butenyl]pyrazole-4-carboxamide]	84	80	62	–	87
Nc1n[nH]cc1C(=O)NC/C=C\COc1cc(CN2CCCCC2)ccn1 [Example 17, 3-Amino-N-[4-(4-piperidinomethyl-2-pyridyloxy) -cis-2-butenyl]pyrazole-4-carboxamide]	83	71	73	–	–
CC(C)NC(=O)NC/C=C\COc1cc(CN2CCCCC2)ccn1 [Example 48, N-[4-(4-piperidinomethyl-2-pyridyloxy) -cis-2-butenyl]-N'-isopropylurea]	81	71	–	–	78
O=C(CSCCO)NCCCOc1cccc(CN2CCCCC2)c1 [Compound A, reference compound]	68	-67	–	–	39
